Converted amounts (≈) assume the structure as drawn. Like-named read-outs stand apart in the source and are kept apart here.
What was measured:
[1] = system: polyresistant Mtb strains; settings: polyresistant Mtb strains (e.g., INH, STR, EMB); cited from earlier work
[2] = system: Mtb 9449/2007; assay: microbe, parasite or virus in culture; assay type: cell-based; settings: Mycobacterium tuberculosis, read-out: MIC Mtb 9449/2007
[3] = system: Mtb Praha 131; assay: microbe, parasite or virus in culture; assay type: cell-based; settings: Mycobacterium tuberculosis, read-out: MIC Mtb Praha 131
[4] = system: Mtb Praha 1; assay: microbe, parasite or virus in culture; assay type: cell-based; settings: Mycobacterium tuberculosis, read-out: MIC Mtb Praha 1
[5] = system: Mtb 234/2005; assay: microbe, parasite or virus in culture; assay type: cell-based; settings: Mycobacterium tuberculosis, read-out: MIC Mtb 234/2005
[6] = system: Mtb 7357/1998; assay: microbe, parasite or virus in culture; assay type: cell-based; settings: Mycobacterium tuberculosis, read-out: MIC Mtb 7357/1998
[7] = system: Mtb 8666/2010; assay: microbe, parasite or virus in culture; assay type: cell-based; settings: Mycobacterium tuberculosis, read-out: MIC Mtb 8666/2010
[8] = system: Mtb Praha 4; assay: microbe, parasite or virus in culture; assay type: cell-based; settings: Mycobacterium tuberculosis, read-out: MIC Mtb Praha 4

Row | SMILES | inhibitory concentration (MIC) [1] [µM] | MIC ([2]; 9449/2007, 336 h) [µM] | MIC ([2]; 9449/2007, 504 h) [µM] | MIC ([3]; PRAHA131, 336 h) [µM] | MIC ([3]; PRAHA131, 504 h) [µM] | MIC ([4]; PRAHA1, 336 h) [µM] | MIC ([4]; PRAHA1, 504 h) [µM] | MIC ([5]; 234/2005, 336 h) [µM] | MIC ([5]; 234/2005, 504 h) [µM] | MIC ([6]; 7357/1998, 336 h) [µM] | MIC ([6]; 7357/1998, 504 h) [µM] | MIC ([7]; 8666/2010, 336 h) [µM] | MIC ([7]; 8666/2010, 504 h) [µM] | MIC ([8]; PRAHA4, 336 h) [µM] | MIC ([8]; PRAHA4, 504 h) [µM]
1 | CCCCCCCCCCCCCCCCCc1nnc(-c2ccncc2)o1 [III] | ≥ 2.59 | – | – | – | – | – | – | – | – | – | – | – | – | – | –
2 | CCCCCCCCCCCCCCCc1nnc(-c2ccncc2)o1 [II] | ≥ 2.59 | – | – | – | – | – | – | – | – | – | – | – | – | – | –
3 | O=[N+]([O-])c1cc(-c2nnc(NCc3ccc(Cl)cc3Cl)o2)cc([N+](=O)[O-])c1 [Compound 7d, N-(2,4-Dichlorobenzyl)-5-(3,5-dinitrophenyl)-1,3,4-oxadiazol-2-amine] | – | 0.06 (≈ 0.0246 µg/mL) | 0.125 (≈ 0.0513 µg/mL) | 0.125 (≈ 0.0513 µg/mL) | 0.125 (≈ 0.0513 µg/mL) | 0.125 (≈ 0.0513 µg/mL) | 0.125 (≈ 0.0513 µg/mL) | 0.06 (≈ 0.0246 µg/mL) | 0.125 (≈ 0.0513 µg/mL) | 0.125 (≈ 0.0513 µg/mL) | 0.125 (≈ 0.0513 µg/mL) | 0.06 (≈ 0.0246 µg/mL) | 0.125 (≈ 0.0513 µg/mL) | 0.06 (≈ 0.0246 µg/mL) | 0.125 (≈ 0.0513 µg/mL)
4 | CCCCCCCCNC(=O)NNC(=O)c1cc([N+](=O)[O-])cc([N+](=O)[O-])c1 [Compound 4h, 2-(3,5-Dinitrobenzoyl)-N-octylhydrazine-1-carboxamide] | – | 1 (≈ 0.381 µg/mL) | 1 (≈ 0.381 µg/mL) | 1 (≈ 0.381 µg/mL) | 1 (≈ 0.381 µg/mL) | 1 (≈ 0.381 µg/mL) | 1 (≈ 0.381 µg/mL) | 1 (≈ 0.381 µg/mL) | 1 (≈ 0.381 µg/mL) | 1 (≈ 0.381 µg/mL) | 1 (≈ 0.381 µg/mL) | 1 (≈ 0.381 µg/mL) | 1 (≈ 0.381 µg/mL) | 1 (≈ 0.381 µg/mL) | 1 (≈ 0.381 µg/mL)

From PMC12121777 (PLOS One, 2025)
